# Like-named read-outs stand apart in the source and are kept apart here.
# Tests used:
# [1] = tested on: aorta rings with endothelium pre-contracted by arterenol; assay: Isolated organ technique: relaxation of rat aorta rings pre-contracted by arterenol; assay type: cell-based; conditions: 200 μM, added after MPB-07 10 μM
# Description: The experiments are carried out on the thoracic aorta of male rats of Wistar strain weighing 200 to 250 g, 7 to 8 weeks of age. The rat is stunned then placed in the supine position. After thoracotomy, the segment of the aorta comprised between the diaphragm and the right aortic arch is excised. The portion of aorta is immediately placed in a buffered physiological solution of modified Krebs type. The aorta is sectioned into 5 mm rings. The aorta rings, after dissection, are suspended between two hooks one of which is fixed and the other is mobile. […] The thermostatically-controlled enclosure is supplied by a water bath. The mobile hook is suspended with a sensor connected to the interface (electromechanical transducer). This interface is connected on the one hand to an amplifier (amplification of the signal) and on the other hand to a computer (display and analysis of the signal). […] The Data Analyst and Prism 3.0 programs allow analysis of the results. After mounting the aorta rings in the experimental device, these are stretched at a basal tension of 2.5 g. This tension corresponds to the optimum point of their tension/length relationship. Waiting for a stable state in the reference physiological medium is carried out over a period of approximately 1 hour with washing every 20 minutes. Following this equilibration period, the different experiments are carried out. […]
# [2] = tested on: anionic transport in smooth muscle cells of aorta rings; assay: Iodide efflux (125I) on rat aorta rings; assay type: cell-based; parameters: key to iodide discharge speed / iodide discharge speed after stimulation: Ln(125I t1/125I t2)/(t1−t2), per min; conditions: for iodide discharge speed: without endothelium, hyperpotassium medium, 250 μM
# Description: The iodide efflux technique, perfected by Venglarick et al. (1990), allows measurement of the movement of ions and is described in detail in Derand et al. (2001).
# The aorta rings of equivalent size, are incubated in 1 ml of filling solution composed of physiological solution of modified Krebs type or hyperpotassium solution (80 mM KCl) supplemented with 1.5 μl/ml of Na ^125I and 0.1 μl/ml of KI. After incubation for 1 hour 30 minutes at 37° C., 4 successive rinsings of two minutes are carried out in 1 ml of appropriate physiological solution (normal Krebs or hyperpotassium solution). An iodide efflux kinetics of the aorta rings is carried out for 12 min. After each minute, the content of each well is sampled and placed in hemolysis tubes, and radioactivity is counted with a gamma counter (Packard, Cobra II). At the 12th minute, the aorta rings are solubilized in Sodium Dodecyl Sulphate (SDS 0.1%)+NaOH (0.1 M). This stage allows the recovery of the residual radioactivity by cell destruction.
# The total radioactivity of the cells is calculated by the addition of the counts per minute (cpm) of each collected fraction and of the cpm of the solubilized fraction (residual radioactivity). The curves are plotted expressing the efflux as a percentage of the cell content accumulated in the medium as a function of time. For example, the value attributed at time tn, corresponds to: 100×(Σ cpm obtained from t0 to tn)/total radioactivity. The instantaneous discharge speed is presented according to the formula Ln(^125It1/^125It2)/(t1−t2), where t1 and t2 are two successive times and ^125It1 and ^125It2 are the effluxes measured at time t1 and t2. In order to evaluate the effect of a substance, the activation ratio r=discharge speed after stimulation/discharge speed before stimulation is determined. The results (average±SEM) are compared using Student's statistical test for a paired value.
# [3] = tested on: aorta rings isolated from rats; assay: Isolated organ technique: relaxation of rat aorta rings pre-contracted in hyperpotassium solution (80 mM KCl); assay type: cell-based; conditions: for relaxation: with endothelium; for EC50: Rattus norvegicus
# Description: The experiments are carried out on the thoracic aorta of male rats of Wistar strain weighing 200 to 250 g, 7 to 8 weeks of age. The rat is stunned then placed in the supine position. After thoracotomy, the segment of the aorta comprised between the diaphragm and the right aortic arch is excised. The portion of aorta is immediately placed in a buffered physiological solution of modified Krebs type. The aorta is sectioned into 5 mm rings.
# For certain preparations, the endothelium is removed mechanically using a needle surrounded by a wire which is turned in the aorta ring.
# The aorta rings, after dissection, are suspended between two hooks one of which is fixed and the other is mobile. This mounting is placed in a chamber of Plexiglas (Emka Technologies), thermostatically-controlled at 37° C., containing 5 ml of physiological solution oxygenated by a gas mixture (95% O2-5% CO2). The thermostatically-controlled enclosure is supplied by a water bath. The mobile hook is suspended with a sensor connected to the interface (electromechanical transducer). This interface is connected on the one hand to an amplifier (amplification of the signal) and on the other hand to a computer (display and analysis of the signal). The IOX 1.565 program enables the processing and display of the signals on the computer screen. The Data Analyst and Prism 3.0 programs allow analysis of the results.
# After mounting the aorta rings in the experimental device, these are stretched at a basal tension of 2.5 g. This tension corresponds to the optimum point of their tension/length relationship. Waiting for a stable state in the reference physiological medium is carried out over a period of approximately 1 hour with washing every 20 minutes. Following this equilibration period, the different experiments are carried out.
# In order to be free of the relaxation/contraction mechanisms due to the endothelium, certain preparations are made devoid of the latter by mechanical destruction. In order to ensure effective destruction of the endothelium, a cholinergic test (ACh 10^−4 M) is carried out at the end of the first period of equilibration, on preparations pre-contracted by a hyperpotassium solution (80 mM of KCl).
# Following this test, the preparations are subjected to several successive washings in order to re-establish a stable state. Once a stable state is reached, the different experiments can be carried out. The contractures due to the hyperpotassium solutions are obtained by the total replacement of the reference physiological solution by the hyperpotassium solution. The administration of the pharmacological substances is carried out in a cumulative fashion and directly in the isolated organ chambers whilst paying attention that the additional volume is not too high. The application of each new concentration only occurs after stabilization. In order to be aware of the reactivity state of the preparation at the end of manipulation, a hyperpotassium or noradrenergic test is carried out. If the preparation reacts in the direction of a contracture, the test is valid.
# The composition of the reference physiological solution is a solution of modified Krebs type: NaCl: 120 mM; KCl: 4.7 mM; CaCl2: 2.5 mM; MgCl2: 1.2 mM; NaH2PO4: 1.2 mM; NaHCO3: 15 mM; Hepes: 10 mM; Glucose: 11 mM; pH=7.4. Hyperpotassium solutions containing different concentrations of KCl have been prepared according to the same principle. These solutions are used to provoke a contracture of the aorta ring by depolarisation of the smooth muscle cells. The hyperpotassium solution mainly used in the experiments contains 80 mM of KCl.
# CFTR [4] = molecular target: T1, CFTR (Homo sapiens, UniProt P13569); conditions: epithelial cells; cited from earlier work
# T1 construct: In cells expressing the CFTR protein in an endogenous manner
# CFTR [5] = molecular target: T2, CFTR (Rattus norvegicus, UniProt P34158); assay: Iodide efflux in muscle cell freshly dissociated from rat aorta; assay type: cell-based
# T2 construct: CFTR is detected at the level of its messenger RNA and at the level of protein in the smooth muscles; from tissue; host or cells: smooth muscle cells freshly dissociated from rat aorta
# Description: (§1) CFTR is detected at the level of its messenger RNA and at the level of protein in the smooth muscles. As negative control the inventors used musculus skeleti of rat at the level of which neither the messenger nor the protein are present. CFTR is detectable in the smooth muscle by immunoprecipitation and phosphorylation in vitro by the protein kinase A. The pharmacology of CFTR has been studied using iodide efflux in muscle cell freshly dissociated from rat aorta. […] Its inhibition profile is similar to that of epithelial CFTR (sensitivity to glibenclamide and DPC but not to Calixarene). […] Moreover, a greater contraction is observed in the KO animals in response to the constricting agents.
# [6] = tested on: aorta rings of Cftr-/- mice; assay: Vasorelaxation of aorta rings contracted by 80 mM K+, Cftr-/- mice; assay type: cell-based, mouse; conditions: pre-contracted aorta
# Description: as §1
# (§2) a, graphs showing the vasorelaxation induced by the VIP neuropeptide (Vasoactive Intestinal Polypeptide) of aortas without endothelium of Cftr^+/+ (left) and Cftr^−/− (right) mice. The aorta rings are reversibly contracted by a hyperpotassium solution (solution of 80 mM K^+) then the effect of 300 nM VIP is measured. The absence of endothelium is verified by the addition of acetylcholine (ACh, 10^−5 M).
# (§3) This effect is absent in Cftr^−/− mice (n=6). Average±SEM*P<0.05, ** P<0.01, *** P<0.001.
# [7] = tested on: aorta rings of Cftr+/+ mice; assay: Vasorelaxation of aorta rings contracted by 80 mM K+, Cftr+/+ mice; assay type: cell-based, mouse; conditions: Cftr+/+ rat and mouse tissues
# Description: as §1, §2, §3
# T2 sequence (P34158 whole entry): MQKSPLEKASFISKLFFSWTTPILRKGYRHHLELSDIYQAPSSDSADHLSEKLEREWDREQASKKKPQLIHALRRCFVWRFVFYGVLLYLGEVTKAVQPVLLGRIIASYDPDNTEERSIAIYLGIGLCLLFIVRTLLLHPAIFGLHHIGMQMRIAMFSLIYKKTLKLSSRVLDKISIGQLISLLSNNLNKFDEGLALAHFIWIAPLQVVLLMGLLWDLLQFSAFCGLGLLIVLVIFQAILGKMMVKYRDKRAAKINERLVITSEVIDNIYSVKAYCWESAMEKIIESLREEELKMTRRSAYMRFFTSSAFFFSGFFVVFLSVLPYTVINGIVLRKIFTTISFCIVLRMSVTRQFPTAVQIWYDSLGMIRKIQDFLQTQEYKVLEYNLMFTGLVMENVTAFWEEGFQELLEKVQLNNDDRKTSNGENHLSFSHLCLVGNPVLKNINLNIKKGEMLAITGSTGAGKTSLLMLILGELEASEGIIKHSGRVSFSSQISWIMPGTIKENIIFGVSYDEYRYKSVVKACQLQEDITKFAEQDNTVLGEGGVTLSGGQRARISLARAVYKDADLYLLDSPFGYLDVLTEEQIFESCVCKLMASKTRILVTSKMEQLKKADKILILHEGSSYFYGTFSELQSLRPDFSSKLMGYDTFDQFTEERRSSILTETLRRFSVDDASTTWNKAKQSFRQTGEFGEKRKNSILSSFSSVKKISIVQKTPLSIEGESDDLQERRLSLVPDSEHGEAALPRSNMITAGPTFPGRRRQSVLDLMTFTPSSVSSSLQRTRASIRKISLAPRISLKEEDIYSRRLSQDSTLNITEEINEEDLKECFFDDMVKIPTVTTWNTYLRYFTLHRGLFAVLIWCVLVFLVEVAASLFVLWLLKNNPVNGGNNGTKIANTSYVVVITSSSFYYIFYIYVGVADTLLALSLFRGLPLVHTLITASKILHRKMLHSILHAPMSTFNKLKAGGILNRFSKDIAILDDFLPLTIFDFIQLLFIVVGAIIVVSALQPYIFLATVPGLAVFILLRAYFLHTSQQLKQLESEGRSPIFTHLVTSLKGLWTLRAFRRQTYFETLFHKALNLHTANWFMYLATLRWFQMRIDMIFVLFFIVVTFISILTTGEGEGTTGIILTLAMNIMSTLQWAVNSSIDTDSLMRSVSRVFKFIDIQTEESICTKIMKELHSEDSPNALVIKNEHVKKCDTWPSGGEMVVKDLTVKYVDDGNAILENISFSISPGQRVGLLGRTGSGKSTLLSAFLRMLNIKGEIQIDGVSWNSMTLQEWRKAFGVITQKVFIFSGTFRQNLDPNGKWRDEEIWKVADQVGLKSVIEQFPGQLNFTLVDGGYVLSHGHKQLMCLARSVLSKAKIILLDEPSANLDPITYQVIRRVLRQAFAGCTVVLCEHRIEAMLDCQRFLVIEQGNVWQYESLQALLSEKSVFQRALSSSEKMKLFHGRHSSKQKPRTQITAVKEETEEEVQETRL
# T1 sequence (P13569 whole entry): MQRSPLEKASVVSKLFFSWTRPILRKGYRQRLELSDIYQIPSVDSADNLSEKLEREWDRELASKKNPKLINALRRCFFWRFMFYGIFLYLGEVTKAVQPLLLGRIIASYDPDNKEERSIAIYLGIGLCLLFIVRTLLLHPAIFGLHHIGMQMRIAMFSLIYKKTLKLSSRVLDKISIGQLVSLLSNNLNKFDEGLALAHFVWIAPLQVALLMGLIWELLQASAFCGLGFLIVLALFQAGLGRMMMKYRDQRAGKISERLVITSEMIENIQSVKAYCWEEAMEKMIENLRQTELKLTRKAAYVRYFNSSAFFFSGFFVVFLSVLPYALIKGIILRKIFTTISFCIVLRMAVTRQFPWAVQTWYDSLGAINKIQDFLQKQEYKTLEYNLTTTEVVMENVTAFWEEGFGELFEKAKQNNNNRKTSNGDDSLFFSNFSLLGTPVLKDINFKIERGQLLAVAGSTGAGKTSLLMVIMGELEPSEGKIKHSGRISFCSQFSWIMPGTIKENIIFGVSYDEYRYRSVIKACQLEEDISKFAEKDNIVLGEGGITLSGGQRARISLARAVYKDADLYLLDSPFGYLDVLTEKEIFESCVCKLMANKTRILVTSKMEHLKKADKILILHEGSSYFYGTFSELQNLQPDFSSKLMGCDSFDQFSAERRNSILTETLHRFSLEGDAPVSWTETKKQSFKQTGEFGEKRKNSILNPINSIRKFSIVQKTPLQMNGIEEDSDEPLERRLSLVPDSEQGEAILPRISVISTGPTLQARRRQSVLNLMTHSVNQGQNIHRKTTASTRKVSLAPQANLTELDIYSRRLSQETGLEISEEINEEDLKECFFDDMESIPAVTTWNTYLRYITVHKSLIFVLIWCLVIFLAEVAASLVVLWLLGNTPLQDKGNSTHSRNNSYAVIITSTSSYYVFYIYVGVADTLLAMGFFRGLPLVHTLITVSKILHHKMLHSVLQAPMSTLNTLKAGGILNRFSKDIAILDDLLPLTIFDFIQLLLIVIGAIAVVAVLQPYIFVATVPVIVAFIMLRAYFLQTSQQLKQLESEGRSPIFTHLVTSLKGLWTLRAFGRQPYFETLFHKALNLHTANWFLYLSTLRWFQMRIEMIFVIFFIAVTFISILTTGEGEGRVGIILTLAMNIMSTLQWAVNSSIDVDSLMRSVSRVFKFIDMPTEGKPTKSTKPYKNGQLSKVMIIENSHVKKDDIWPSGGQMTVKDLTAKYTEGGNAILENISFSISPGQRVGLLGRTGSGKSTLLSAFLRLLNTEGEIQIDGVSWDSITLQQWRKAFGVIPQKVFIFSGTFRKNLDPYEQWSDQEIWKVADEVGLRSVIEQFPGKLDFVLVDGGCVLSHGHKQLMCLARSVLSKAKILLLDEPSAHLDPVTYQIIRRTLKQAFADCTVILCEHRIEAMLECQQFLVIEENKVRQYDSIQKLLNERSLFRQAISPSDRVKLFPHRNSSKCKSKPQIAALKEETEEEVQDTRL
molecule,measurement,setting,value
"COc1ccc(CCN(C)CCCC(C#N)(c2ccc(OC)c(OC)c2)C(C)C)cc1OC (stereo not shown) [verapamil, Verapamil, reference compound]",effect on rapid contracture oscillations,[1],stops these variations
"O=c1cc2ccccn2c2c(Cl)cccc12 [MPB-70, 10-chlorobenzo[c]quinolizine-6-one, reference compound]",activation of anionic transport / discharge speed,[2]; smooth muscle cells of aorta rings,no increase in the discharge speed
same,iodide discharge speed,[2]; 1 minute after addition,0.053±0.003
same,iodide discharge speed,[2]; 2 minutes after addition,0.055±0.005
same,relaxation,[3]; 160 μM,27%
same,relaxation,[3]; 250 μM,42%
same,relaxation,[3]; 500 μM,46%
same,activity on the CFTR channel,CFTR [4],inactive on CFTR of epithelial cells
"CC(=O)OCC[N+](C)(C)C [ACh, acetylcholine, reference compound]",relaxation (cholinergic test),"[3]; rings with endothelium, 10^-4 M",approximately 40%
"Vasoactive Intestinal Polypeptide [VIP, reference compound]",activation of iodide efflux,CFTR [5],activate iodide efflux
same,vasorelaxation in Cftr-/- mice,[6],very considerably reduced
same,effect on pre-contracted aorta,[7],relaxation of the pre-contracted aorta
CC(C)Cn1c(=O)n(C)c(=O)c2[nH]cnc21 [IBMX],activation of iodide efflux,CFTR [5],activate iodide efflux
"CCCCc1c(O)c2cccc(Cl)c2[n+]2ccccc12.[Cl-] [MPB-91, 5-n-Butyl-10-chloro-6-hydroxybenzo[c]quinolizinium chloride]",EC50,"[3]; comparison of FIG. 6, read-out: EC50, dose/response curves",21 µM
same,EC50,"[3]; summary statement of results, read-out: EC50, vasorelaxant effect",21 µM
same,melting point,,160 °C
Nc1ncnc2c1nc(Sc1ccc(Cl)cc1)n2[C@@H]1O[C@@H]2COP(=O)(O)O[C@H]2[C@H]1O [cpt-cAMP],activation of iodide efflux,CFTR [5],activate iodide efflux
COc1ccc(Cl)cc1C(=O)NCCc1ccc(S(=O)(=O)NC(=O)NC2CCCCC2)cc1 [glibenclamide],inhibition profile of iodide efflux,CFTR [5],sensitivity
O=C(O)c1ccccc1Nc1ccccc1 [DPC],inhibition profile of iodide efflux,CFTR [5],sensitivity

# From patent US7897610B2, “Use of benzo[c]quinolizinium derivatives for the treatment of diseases that are linked to smooth muscle cell constriction” (Centre National de la Recherche Scientifique, priority 2002, dated 2011)
